For data set [1], the system named is P3HR1 cells. Type of data set: cell-based, human. Particulars: for effective concentration: in the presence of GCV. The procedure: (§1) The induction of lytic phase was assayed in EBV-positive lymphoma cell lines exposed to different HDAC inhibitors (HDACi) for 24-48 hrs, then the expression of EBV TK and other EBV transcripts by RT-PCR analysis was quantified. To determine tumor cytotoxic activity of the combination of HDACi and GCV, EBV+ lymphoma cells were exposed to a range of concentrations of HDAC inhibitors and ganciclovir (GCV) for 3 days and then to GCV alone for another 3 days. Efficacy of a particular HDAC inhibitor in the combination treatment approach was then determined by enumerating living cells. A general experimental protocol is described below.
The EBV-positive B lymphoma cell line P3HR1 was used in the study. The P3HR1 cell line was originally derived from Burkitt's lymphoma patient. EBV maintains a latent state of replication in this cell line. These cells were maintained in RPMI 1640 with 10% fetal bovine serum containing 100 U penicillin per ml and 100 μg streptomycin per ml.
To test the sensitivity of EBV-positive lymphoma cells towards HDAC inhibitors, P3HR1 cells were treated with HDAC inhibitors in the presence of one anti-viral drug. At the end of the assay, the efficacy of the HDAC inhibitors was assessed by measuring the inhibition of cell growth compared to untreated cells.
(§2) Healthy, actively-growing P3HR1 cells were harvested and resuspended in fresh growth media. Cells were seeded in wells. Appropriate dilutions of HDAC inhibitors were added to certain wells, some of which received an anti-viral drug (such as GCV at 50 μM concentration). At 72 hrs, 800 μl of culture fluid was removed from each well. Wells were then refed with 1.0 ml fresh growth media without HDAC inhibitors. Fresh GCV solution was added to the wells that originally received GCV at the same initial concentration. On day 6, cell morphology was observed under microscope and viable cell counts in each individual wells were determined by trypan blue dye exclusion method using an automated cell counter (Countess, Invitrogen).

In a further data set the test system is EBV TK. The data set can be described thus: Thymidine kinase expression assay (RT and real-time PCR of TK mRNA). The arrangement: TK expression: dose or concentration left out as unconfirmed. In kind it is cell-based, Epstein-Barr virus. As to the method: To measure the relative level of TK mRNA in various total RNA preparations, reverse transcription and quantitative PCR using real time PCR technology was used. Five micrograms of total RNA was reverse-transcribed using random hexamer primers and Superscript III cDNA synthesis kit (Invitrogen). The cDNA was diluted to a final volume of 60 μl with sterile water, 8 μl of which was then used in each real time PCR reaction in an ABI 7500 Sequencher using SYBR-Green technology. Primers used for the amplification of TK were EBV-TK1-F: 5′-[…]-3′ (SEQ ID NO: 1); EBV-TK1-R: 5′-[…]-3′ (SEQ ID NO: 2). The β-actin mRNA levels in those samples were determined similarly using β-actin-specific primers Actin/hu-F: 5′-[…]-3′ (SEQ ID NO: 3); Actin/hu-R: 5′-[…]-3′ (SEQ ID NO: 4). The relative level of TK expression in a sample was calculated following normalization of β-actin expression level.
as §1
P3HR1 cells were seeded in 60 mm plates containing 3×10^6 cells in 3 ml of fresh growth media. Appropriate concentrations of HDAC inhibitors were added to the plate and cells were incubated in the presence of HDAC inhibitors for 6 h, 24 h, 48 h, or as needed. Cells were harvested by centrifugation and washed once in cold PBS. Total cellular RNA was then extracted. To measure the relative level of TK mRNA in various total RNA preparations, reverse transcription and quantitative PCR using real time PCR analysis were used. See, Ghosh, S. K., Forman, L. W., Akinsheye, I., Perrine, S. P., Faller, D. V.: Short discontinuous sodium butyrate exposure efficiently sensitizes latently EBV infected cells towards nucleoside analogue-mediated growth inhibition, Blood Cells Mol. Diseases (2007), 38:57-65. The relative level of TK expression in a sample was calculated following normalization of β-actin expression level.

Another data set deals with HIV-1. To be noted: OD, converted to pg of protein.
Data set [2] relates to P3HR1 cells. In kind it is cell-based, human. To be noted: then GCV for up to 6 days.
Data set [3] deals with P3HR1 cells. Kind of data set: Titration / toxicity of HDAC inhibitors alone on P3HR1 cells. Type of data set: cell-based, human. As to the method: as §2
In data set [4] the test system is P3HR1 cells. Type of data set: cell-based, human. The procedure: The EBV-positive B lymphoma cell line P3HR1 was used throughout these assays. The P3HR1 cell line was originally derived from Burkitt's lymphoma patient. EBV maintains a latent state of replication in this cell line. Cells were maintained in RPMI 1640 with 10% fetal bovine serum containing 100 U penicillin per ml and 100 μg streptomycin per ml. […] Viable cell counts were measured and toxicity was expressed as percentage of cell growth compared to untreated cells. As shown in FIG. 2A and FIG. 2B, PCV was less toxic to the cells compared to GCV.

For the next data set, the system named is EBV-TK. The data set can be described thus: Induction of EBV-TK in EBV-immortalized B-cells and patient-derived tumor cells. Type of data set: cell-based, Epstein-Barr virus. Particulars: for expression of viral thymidine kinase and other viral protein kinases: EBV-infected lymphocytes. The text has this: In some embodiments, inducing agents include arginine butyrate and/or other histone deacetylase inhibitors. […] This expression of a viral gene can be used as a point for attack by anti-viral agents, allowing for treatment of latent infections.
Treatment of patients with viral-associated tumors such as EBV with inducing agents such as arginine butyrate, to induce the expression of EBV-TK/EBV-PK, and GCV, to eliminate EBV-TK/EBV-PK expressing tumor cells, is an effective, non-toxic therapy. […] Without wishing to be bound by theory, it is believed that just the presence of the EBV genome in latent form would make the tumor susceptible to this combination protocol.

Protocol for HIV-1: Virus production (p24 release) was examined in an HIV-1-infected monocyte line. Cells were treated or not treated with HDAC-inhibitors and other compounds. P24 release expressed as optical density (“OD”) (FIG. 13), and then converted to pg of protein (FIG. 14). […] DMSO was vehicle for some of the compounds tested.

Turning to `Cc1[nH]c2ccccc2c1CCNCc1ccc(/C=C/C(=O)NO)cc1` [LBH589], in the data set on P3HR1 cells [1], the “concentration with activity in combination with GCV comparable to NaB at 1.0 mM” value is 50 nM and the effective concentration was in the range of 50 to 100 nM. In addition, the “EBV-TK expression in the tumor cells” value with EBV TK is “strongly induced”. For the same compound, the TK expression level result with EBV TK (compared to optimum concentration of NaB (2.5 mM)) is reported as “quite high”. Further, the “virus production (p24 release)” value in the data set on HIV-1 is “active”.
As to `Nc1ccccc1NC(=O)c1ccc(CNC(=O)OCc2cccnc2)cc1` [MS-275, 3-pyridinylmethyl [[4-[[(2-aminophenyl)amino]carbonyl]phenyl]methyl] carbamate], in the data set with P3HR1 cells [1], the “concentration with activity in combination with GCV comparable to NaB at 1.0 mM” value is reported as 500 nM and the effective concentration lay within 200 to 500 nM. For the same compound, in the data set on EBV TK, the “EBV-TK expression in the tumor cells” value is on record as “strongly induced”, the “concentration strongly inducing TK expression” value is not below 500 nM and the “time post treatment at which TK expression was induced” value amounted to 6 h. Moreover, the “exposure sensitizing cells to GCV-mediated effects as efficiently as 72 hr continuous treatment” value in the data set on P3HR1 cells [2] is 24 h.
For the compound `CCCC(=O)[O-].[Na+]` [NaB, sodium butyrate], the “reduction of growth compared to cells treated with NaB or GCV alone” value with P3HR1 cells [1] (NaB+GCV) is “up to 50%”. Moreover, the optimal concentration in the data set with P3HR1 cells [1] (combination with GCV) stood at 1.0 mM. The “cell growth, HDAC inhibitor alone” value in the data set on P3HR1 cells [3] (NaB at concentration higher than 1.0 mM) was “reduces cell growth to a significant degree”.
On to `Nc1nc2c(ncn2CCC(CO)CO)c(=O)[nH]1` [PCV, penciclovir], for which the “toxicity (percentage of cell growth compared to untreated cells)” value with P3HR1 cells [4] is listed as “less toxic”. Further, in the data set on P3HR1 cells [4] (PCV at higher concentrations, combination with Na-butyrate), the “inhibition of cell growth at higher concentrations” value is on record as “did not change significantly”.
As to `O=C(/C=C/c1cccc(S(=O)(=O)Nc2ccccc2)c1)NO` [PXD101], the TK expression result with EBV TK is “high level”.
With `CCC(Nc1ncnc2ccccc12)C(=O)O` (stereo not drawn) [RB3], the “virus production (p24 release)” value in the data set on HIV-1 is reported as “levels similar to the control of vehicle alone”.
In the case of `O=C(CCCCCCC(=O)Nc1ccccc1)NO` [SAHA, suberoyl anilide hydroxamic acid], in the data set with EBV TK (compared with efficient concentrations of butyrate (1.0 mM)), the TK expression level result is “higher level”.
As to `CCC(C)(C)C(=O)O` [ST20, 2,2-dimethyl butyrate], the “virus production (p24 release)” value in the data set with HIV-1 is “levels similar to the control of vehicle alone”.
With `O=C(CCCCCN1C(=O)c2cccc3cccc(c23)C1=O)NO` [Scriptaid], the “effect with GCV in reducing cell growth” value in the data set with P3HR1 cells [1] (especially at 500 nM and 1 μM) is “strong synergistic effect”.
In the case of `CCCC(CCC)C(=O)O` [VA, valproic acid], the “activity in combination with GCV on cell growth / cell killing” value in the data set on P3HR1 cells [1] is recorded as “very similar activity”. The “efficiency in inducing TK expression” value in the data set with EBV TK (compared with NaB) is on record as “less efficient than NaB”.
As to `CCC(=O)CCCCC[C@@H]1NC(=O)[C@H]2CCCCN2C(=O)[C@H]([C@@H](C)CC)NC(=O)[C@H](Cc2cn(OC)c3ccccc23)NC1=O` [apicidin], the “reduction of cell growth over cells treated with apicidin alone” value with P3HR1 cells [1] (100 nM and 200 nM, with GCV) is listed as 40-50%. Besides, the “toxicity to the cells” value in the data set with P3HR1 cells [3] (500 nM) was “very toxic”. Moreover, the “concentration quite toxic to the cells” value with P3HR1 cells [3] (apicidin alone) is “higher than 200 nM”. Also, the “virus production (p24 release)” value in the data set with HIV-1 is given as “active”.
As to `CC(C)C(N)=O` [isobutyramide], in the data set with EBV-TK, the “expression of viral thymidine kinase and other viral protein kinases” value is “enhance expression”.
As for `CCCCCCCC(=O)SCC/C=C/[C@@H]1CC(=O)NCc2nc(cs2)C2=N[C@@](C)(CS2)C(=O)N[C@@H](C(C)C)C(=O)O1` [largazole], in the data set with HIV-1, the “virus production (p24 release)” value is “active”.
For the compound `CCCCCCCCCCCCCC(=O)O[C@@H]1[C@@H](C)[C@@]2(O)[C@@H](C=C(CO)C[C@]3(O)C(=O)C(C)=C[C@@H]23)[C@@H]2C(C)(C)[C@]12OC(C)=O` [phorbol myristate acetate], the “virus production (p24 release)” value with HIV-1 is recorded as “active”.
For the compound `CC(C=CC(=O)NO)=CC(C)C(=O)c1ccc(N(C)C)cc1` (stereo not drawn) [trichostatin A, 7-[4-(dimethylamino)phenyl]-N-hydroxy-4,6-dimethyl-7-oxohepta-2,4-dienamide], in the data set on HIV-1, the “virus production (p24 release)” value was “active”.
Turning to Oxamflatin, in the data set on P3HR1 cells [1], the “activity in combination with GCV on cell growth / cell killing” value is “synergistic activity”. Further, in the data set with P3HR1 cells [1] (at 200 nM, compared with 1.0 mM NaB), the “activity level (growth suppression) with GCV” value is on record as “more than what typically seen with 1.0 mM NaB”.
Turning to arginine butyrate, in the data set on EBV-TK (EBV-immortalized B-cells and patient-derived tumor cells), the EBV-TK activity entry is reported as “induces EBV-TK activity”. The “expression of viral thymidine kinase and other viral protein kinases” value in the data set with EBV-TK is listed as “enhance expression”. In the data set with HIV-1, the “virus production (p24 release)” value was “active”.

Values taken from patent US12083119B2, “Methods and compositions for treating viral or virally-induced conditions” (VIRACTA SUBSIDIARY, INC., priority 2010, dated 2024).
